{
  "source": "paper PMC11047392",
  "about": "“A Physiological Approach to Explore How Thioredoxin–Glutathione Reductase (TGR) and Peroxiredoxin (Prx) Eliminate H2O2 in Cysticerci of Taenia” (Antioxidants, 2024)",
  "target": "T1, TsPrx1 (Taenia solium, UniProt Q2TP88)",
  "T1 construct": "recombinant, pET-23a(+) NdeI/XhoI, E. coli BL21 Codon Plus, His tag (printed as amino terminal), 195 residues, ~22 kDa",
  "T1 sequence (Q2TP88 entry or part of it)": "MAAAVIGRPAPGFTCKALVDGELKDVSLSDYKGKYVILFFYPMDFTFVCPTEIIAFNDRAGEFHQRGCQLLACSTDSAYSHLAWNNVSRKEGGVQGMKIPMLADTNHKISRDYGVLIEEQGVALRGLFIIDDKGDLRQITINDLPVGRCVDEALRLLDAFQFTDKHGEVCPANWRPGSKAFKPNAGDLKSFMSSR",
  "experiment": "NADPH oxidation at […] nm, coupled assay with TsTrx and TcTGR",
  "format": "biochemical",
  "conditions": "150 μM NADPH, 60 μM TsTrx, 11.2 nM TcTGR, 1.25 μM TsPrx1, pH 7.8, 25 °C",
  "data": [
    {"smiles": "CC(C)(C)OO", "note": "[t-butyl hydroperoxide]", "values": [
      {"measurement": "Km", "result": 18.1, "unit": "µM"}
    ]}
  ]
}
